Results: US20080312201A1, “Reduced Toxicity Methotrexate Formulations and Methods for Using the Same” (priority 2004, published 2008)

What was measured:
[1] = tested on: mice; assay: Mouse testing: toxic side effects of MTX, liver examination; format: in vivo; conditions: after two weeks of treatment every other day
Description: (§1) The primary aspect is testing in mice for the ability to translate the toxic reducing action of the additive from flies into mice. Methotrexate was administered at a more moderate dose level, repeatedly over a long period of time. All additives tested for reducing the toxic side effects of MTX in mice were successful. That is 100% of the compounds identified in flies as toxic reducing compounds translated this activity into mice, for both chronic and acute applications. One of the signs of chronic liver damage by methotrexate is metabolic weight gain. The treatments were done on older juvenile mice (cohort of six). There weight gain was followed for two weeks with treatments given every other day.
At the end of the experiment, livers were examined.

[2] = tested on: Ovarian cancer cell; assay: Human cancer cell assessment; format: cell-based
Description: As a quick secondary screen, the additive alone and in combination with the target drug was examined in these human cancer cell lines. The results of TK-336 are shown as a specific example. The compound alone when treated over a wide concentration range had no effects against the cancer cells.

[3] = Mouse testing: weight gain under repeated methotrexate; format: in vivo; conditions: older juvenile mice, cohort of six; for weight: treatments every other day
Description: as §1

[4] = tested on: fruit flies; assay: Lethal dose (LD) curve in fruit flies; format: in vivo, Drosophila; conditions: chemical mixed into food and water, 50 wild-type embryos; range tested 0.01 mM to 5 mM
Description: The LD curve in fruit flies was generated for methotrexate. The data to generate the curve was obtained by: Mixing a specific concentration of chemical into the food and water supply of the fruit flies, then 50 wild-type embryos are added to the assay. The LD value for this concentration was calculated by 100−(2×(number of alive flies)). The LD curve was generated by repeating this method over a concentration range. For example, the concentration range tested for methotrexate was 0.01 mM to 5 mM. The LD 98 was identified for methotrexate was 0.5 mM. The LD98 was used as a stringent level for identifying additive chemicals that reduce the toxicity. This stringent level of toxicity is key for several reasons: 1) The high toxicity dose turns even mild toxic side effects into significant barriers for the flies to survive. At the LD98 concentration of methotrexate, all of the toxic mechanisms are orders of magnitude above that observed at physiological treatment doses. At the LD98 dose, suppressing any one toxicity side effect will not enable significant survival of the flies. An additive that enables significant survival is more likely able to reduce all toxic side effects of methotrexate.

CN(Cc1cnc2nc(N)nc(N)c2n1)c1ccc(C(=O)N[C@@H](CCC(=O)O)C(=O)O)cc1 [MTX]
appearance of the livers at the end of the experiment [1]: smaller, yellow/orange in color and had almost no veins in the organ | vein density in the liver [1]: 5 % of the normal density | Cell survival ([2]; 15 μg/ml): 50% | Cell survival ([2]; 30 μg/ml): 5% | weight ([3]; Day 0): 107 | weight ([3]; Day 7): 107 | weight ([3]; Day 14): 110 | weight gain/week ([3]; over two weeks): ~1 % weight gain/week | LD98 [4]: 0.5 mM
